Reference: ChEMBL document CHEMBL4627267, “A novel series of cysteine-dependent, allosteric inverse agonists of the nuclear receptor RORγt” (Bioorg Med Chem Lett, 2020)
Active and inactive are the calls of the source. The rule behind the calls is not given here.

Tests used:
[1] = target: T1, Nuclear receptor ROR-beta (Homo sapiens) (UniProt Q92753); test: Inverse agonist activity at human full-length RORbeta expressed in Jurkat cells co-transfected with 5 copies of ROR response element after 18 hrs by luciferase based reporter gene assay; format: cell-based
T1 sequence (whole entry): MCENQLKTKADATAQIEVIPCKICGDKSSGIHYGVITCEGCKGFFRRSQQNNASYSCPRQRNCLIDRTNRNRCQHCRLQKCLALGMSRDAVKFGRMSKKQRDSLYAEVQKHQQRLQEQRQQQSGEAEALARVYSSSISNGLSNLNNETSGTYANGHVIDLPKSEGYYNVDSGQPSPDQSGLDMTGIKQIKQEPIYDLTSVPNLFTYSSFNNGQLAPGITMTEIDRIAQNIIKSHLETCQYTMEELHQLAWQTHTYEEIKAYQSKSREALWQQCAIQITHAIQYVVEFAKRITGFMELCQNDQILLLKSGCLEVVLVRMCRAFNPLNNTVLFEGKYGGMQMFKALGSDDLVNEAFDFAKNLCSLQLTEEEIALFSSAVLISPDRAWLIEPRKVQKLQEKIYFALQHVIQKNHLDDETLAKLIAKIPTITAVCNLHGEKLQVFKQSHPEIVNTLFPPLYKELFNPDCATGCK

[2] = target: T2, Nuclear receptor ROR-alpha (Homo sapiens) (UniProt P35398); test: Inverse agonist activity at human full-length RORalpha expressed in Jurkat cells co-transfected with 5 copies of ROR response element after 18 hrs by luciferase based reporter gene assay; format: cell-based
T2 sequence (whole entry): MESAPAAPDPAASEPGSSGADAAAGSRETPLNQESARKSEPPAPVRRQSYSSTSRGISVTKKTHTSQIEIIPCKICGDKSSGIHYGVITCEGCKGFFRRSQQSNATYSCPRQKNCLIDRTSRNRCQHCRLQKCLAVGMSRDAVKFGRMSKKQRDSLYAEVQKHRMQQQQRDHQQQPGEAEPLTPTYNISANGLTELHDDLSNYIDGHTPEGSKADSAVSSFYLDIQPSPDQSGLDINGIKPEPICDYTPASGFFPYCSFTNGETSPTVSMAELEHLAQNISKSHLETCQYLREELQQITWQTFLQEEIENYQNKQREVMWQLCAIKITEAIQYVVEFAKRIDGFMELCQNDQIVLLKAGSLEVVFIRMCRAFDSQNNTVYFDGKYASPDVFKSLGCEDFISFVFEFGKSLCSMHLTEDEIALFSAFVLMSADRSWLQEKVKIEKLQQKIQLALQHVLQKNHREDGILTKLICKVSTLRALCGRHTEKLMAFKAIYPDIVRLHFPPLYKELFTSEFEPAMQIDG

[3] = Cytotoxicity against human CD4-positive T cells assessed as reduction in cell viability at 100 nM; format: cell-based; details: 0.1 µM
[4] = tested on: Mus musculus; test: Antiarthritic activity in collagen/complete freund's adjuvant-induced DBA/1 mouse model of arthritis assessed as reduction in clinical score at 3 mg/kg/day, po administered via gavage starting from 21 day post collagen/CFA challenge and measured up to 42 days; format: functional, organism-based
[5] = tested on: Mus musculus; test: Antiarthritic activity in collagen/complete freund's adjuvant-induced DBA/1 mouse model of arthritis assessed as reduction in paw thickness at 3 mg/kg/day, po administered via gavage starting from 21 day post collagen/CFA challenge and measured up to 42 days; format: functional, organism-based

Activity [1] | Activity [2] | Structure (SMILES) | Activity [3] | Activity [4] | Activity [5]
inactive | inactive | CCC[C@H]1C(=O)C(C#N)=C[C@@]2(C)c3nc(-c4ccnc(C5CC5)c4)nc(-c4ccccc4F)c3CC[C@H]12 |  |  | 
inactive | inactive | Cc1cc(-c2nc(-c3ccc(F)cc3)c3c(n2)[C@]2(C)C=C(C#N)C(=O)[C@H](C)[C@H]2CC3)ccn1 | 10 to 15% | Active | Active
